Laboratory results published in patent publication US5010058A, “3,5,6-substituted derivatives of 1,2-O-isopropylidene-α,D-glucofuranose and intermediates for preparing these derivatives” (501 Greenwich Pharmaceuticals Incorporated, priority 1989, dated 1991).
Like-named read-outs stand apart in the source and are kept apart here.

Key:
[1] = tested on: leukotriene B4 (LTB4) secretion by BUD-8 skin cell fibroblasts; assay: Secretion of LTB4 by BUD-8 skin cell fibroblasts (radioimmunoassay); type: cell-based, human; conditions: for LTB4 in supernatant of BUD-8 skin cells: triplicate ± SD
Protocol: Levels of LTB4 in aliquots of BUD-8 skin cell cultures supernatants were quantified by radioimmunoassay. The cells were first plated in triplicate at a density of 1×10^4 cells/0.1 ml/microtiter well for the assay to quantitate LTB4. To these cells was added 0.1 ml incubation medium containing compound 80182, or nordihydroguaiaretic acid (NDGA) to inhibit leukotriene production. After 18 hours of culture, samples of the BUD-8 skin cell supernatants were collected from one set of microtiter plates and frozen until assayed for LTB4 content using a radioimmunoassay. Into a polypropylene tube were mixed 0.1 ml anti-LTB4, 0.1 ml^3 H-LTB4 and 0.1 ml LTB4 standard or LTB4 containing sample. The BUD-8 skin cell culture supernatants were used directly in the radioimmunoassay. The tubes were refrigerated overnight. A charcoal solution (0.5 ml of 0.5% charcoal Norit A) was added and each tube was centrifuged. The radio activity in the supernatant was then counted in a liquid scintillation counter. | ^a Experimental compounds were first suspended in DMSO or ethanol, | ^b The effect of experimental compounds on the amount of LTB4 in […]

[2] = tested on: BUD-8 skin cell fibroblasts; assay: Proliferation of BUD-8 skin cell fibroblasts (3H-thymidine uptake); type: cell-based, human; conditions: for 3H-Thymidine uptake by BUD-8 skin cells: triplicates ± SD
Protocol: The human skin cell fibroblast line, BUD-8, was originally derived from the normal skin of a person and can now be obtained from the American Type Culture Collection.
The number of BUD-8 cells was expanded for use by culture in 25 cm^2 flasks at 37° C. in an atmosphere of 5% CO2 in air. At approximately 4-5 five day intervals, or when confluence was reached, the cells were passaged. This was accomplished by detaching the cells with a Teflon scraper, washing and reseeding the cells at a lower density into fresh tissue culture flasks.
The effect of these compound on the proliferative capacity of human BUD-8 skin fibroblasts was measured with the use of a ^3 H-thymidine incorporation assay using culture conditions which were similar to those used for the Con-A blastogenesis assay, described previously. Cultured skin cells were detached from the surface of tissue culture flasks mechanically with a Teflon scraper. The cells were washed, resuspended in incubation medium and the viabilities were determined. These cells were then plated in triplicate at a density of 2×10^3 cells/0.1 ml/microtiter well for the proliferation assays. […] Eighteen hours later, each of the BUD-8 cultures was examined morphologically for evidence of compound-induced toxicity such as cell rounding or granularity. The thymidine-pulsed cells were then precipitated and the amount of ^3 H-thymidine incorporation was counted in a liquid scintillation counter. […]
(§1) ^a Experimental compounds were first suspended in DMSO or ethanol,
^b The effect of experimental compounds on the proliferation of BUD8

[3] = tested on: normal spleen cells / splenic T-lymphocytes (Con-A stimulated); assay: Con-A blastogenic response of normal spleen cells (3H-thymidine incorporation); type: cell-based, mouse (C57Bl/6); conditions: for Blastogenic response of normal spleen cells to Con-A: triplicates ± SD; for inhibition at 1 µg/mL / inhibition at 10 µg/mL / inhibition at 25 µg/mL / inhibition at 100 µg/mL / inhibition at 300 µg/mL / inhibition at 750 µg/mL: Mus musculus, T-lymphocyte, 72 h, percent change from no compound, read-out: Blastogenic response of normal spleen cells to Con-A, % effect
Source text: A simple method is used to screen compounds for their ability to modulate T-lymphocyte activity which comprises assessing the capacity of the compounds to alter the activation of murine spleen cells in response to T-lymphocyte mitogen activators, such as concanavalin-A (Con-A). The method used to measure the effects of the compounds of the present invention on the blastogenic response of spleen cells to the T-lymphocyte mitogen, (i.e., Con-A), is as follows.
Spleen cells were removed from normal C57Bl/6 mice and homogenized to obtain a single cell suspension. Erythrocytes were lysed by hypotonic shock. Upon determination of the viability and concentration of the remaining lymphoid cells, they were adjusted to a concentration of 4×10^6 /ml. These spleen cells (2×10^5 cells per […]) were seeded into wells of microtiter plates with the compounds of the present invention having the following dose concentrations:
Con-A was also added to these cultures at a final concentration of […]. These cells were cultured for 3 days at 37° C. in a humidified atmosphere of 5% CO2 in air. For the last 18 hours of culture, […] H-thymidine was added to each well. The cells were then precipitated by a multichannel harvester. The amount of ^3 H-thymidine incorporated by the cultured cells were measured in a liquid scintillation counter (Disintegrations per min., DPM). All assays were conducted in triplicate.
The incubation medium used for the blastogenesis assays was RPMI-1640 medium containing 10% fetal bovine serum, […] streptomycin, 100 U/ml penicillin, […] Hepes buffer solution, 5×10^-5 M 2-mercaptoethanol and 2 mM glutamine.
as §1
^b The effect of experimental compounds on the blastogenic response o

[4] = Con-A 1 ug/ml, compound 1 ug/ml
[5] = Con-A 1 ug/ml, compound 10 ug/ml
[6] = Con-A 1 ug/ml, compound 25 ug/ml
[7] = Con-A 1 ug/ml, compound 100 ug/ml
[8] = Con-A 1 ug/ml, compound 300 ug/ml
[9] = Con-A 1 ug/ml, compound 750 ug/ml
[10] = Con-A 4 ug/ml, compound 1 ug/ml
[11] = Con-A 4 ug/ml, compound 10 ug/ml
[12] = Con-A 4 ug/ml, compound 25 ug/ml
[13] = Con-A 4 ug/ml, compound 100 ug/ml
[14] = Con-A 4 ug/ml, compound 300 ug/ml
[15] = Con-A 4 ug/ml, compound 750 ug/ml

CCCCCCCCCCCNCC(O)C1OC2OC(C)(C)OC2C1O [Ex. 2, 1,2-O-Isopropylidene-6-deoxy-6-aminoundecyl-α, D-glucofuranose]
effect on LTB4 secretion / activity [1]: produced an effect upon the secretion of leukotriene B4 | inhibition at 1 µg/mL ([1]; Homo sapiens, Fibroblast, 18 h, compound 1 ug/ml, percent change from no compound, read-out: LTB4 secretion, % Effect): -15% | inhibition at 10 µg/mL ([1]; Homo sapiens, Fibroblast, 18 h, compound 10 ug/ml, percent change from no compound, read-out: LTB4 secretion, % Effect): 37% | inhibition at 25 µg/mL ([1]; Homo sapiens, Fibroblast, 18 h, compound 25 ug/ml, percent change from no compound, read-out: LTB4 secretion, % Effect): 58% | inhibition at 100 µg/mL ([1]; Homo sapiens, Fibroblast, 18 h, compound 100 ug/ml, percent change from no compound, read-out: LTB4 secretion, % Effect): 22% | inhibition at 300 µg/mL ([1]; Homo sapiens, Fibroblast, 18 h, compound 300 ug/ml, percent change from no compound, read-out: LTB4 secretion, % Effect): 60% | inhibition at 750 µg/mL ([1]; Homo sapiens, Fibroblast, 18 h, compound 750 ug/ml, percent change from no compound, read-out: LTB4 secretion, % Effect): 42% | calculated LTB4 secreted/10^5 BUD-8 cells ([1]; compound 1 ug/ml): 862 pg LTB4 per 10^5 cells | LTB4 in supernatant of BUD-8 skin cells ([1]; compound 1 ug/ml): 44.4 ± 3.8 pg LTB4 /100 ul supernatant | calculated LTB4 secreted/10^5 BUD-8 cells ([1]; compound 10 ug/ml): 485 pg LTB4 per 10^5 cells | LTB4 in supernatant of BUD-8 skin cells ([1]; compound 10 ug/ml): 24.6 ± 5.3 pg LTB4 /100 ul supernatant | calculated LTB4 secreted/10^5 BUD-8 cells ([1]; compound 25 ug/ml): 303 pg LTB4 per 10^5 cells | LTB4 in supernatant of BUD-8 skin cells ([1]; compound 25 ug/ml): 16.4 ± 2.0 pg LTB4 /100 ul supernatant | calculated LTB4 secreted/10^5 BUD-8 cells ([1]; compound 100 ug/ml): 575 pg LTB4 per 10^5 cells | LTB4 in supernatant of BUD-8 skin cells ([1]; compound 100 ug/ml): 30.1 ± 3.9 pg LTB4 /100 ul supernatant | calculated LTB4 secreted/10^5 BUD-8 cells ([1]; compound 300 ug/ml): 281 pg LTB4 per 10^5 cells | LTB4 in supernatant of BUD-8 skin cells ([1]; compound 300 ug/ml): 15.3 ± 1.1 pg LTB4 /100 ul supernatant | calculated LTB4 secreted/10^5 BUD-8 cells ([1]; compound 750 ug/ml): 422 pg LTB4 per 10^5 cells | LTB4 in supernatant of BUD-8 skin cells ([1]; compound 750 ug/ml): 22.4 ± 4.2 pg LTB4 /100 ul supernatant | anti-proliferative effect on skin cells [2]: anti-proliferative effect that was statistically significant | inhibition at 1 µg/mL ([2]; Homo sapiens, Fibroblast, compound 1 ug/ml, percent change from no compound, read-out: 3H-Thymidine uptake by BUD-8 skin cells, % effect): 1% | inhibition at 10 µg/mL ([2]; Homo sapiens, Fibroblast, compound 10 ug/ml, percent change from no compound, read-out: 3H-Thymidine uptake by BUD-8 skin cells, % effect): 46% | inhibition at 25 µg/mL ([2]; Homo sapiens, Fibroblast, compound 25 ug/ml, percent change from no compound, read-out: 3H-Thymidine uptake by BUD-8 skin cells, % effect): 77% | inhibition at 100 µg/mL ([2]; Homo sapiens, Fibroblast, compound 100 ug/ml, percent change from no compound, read-out: 3H-Thymidine uptake by BUD-8 skin cells, % effect): 89% | inhibition at 300 µg/mL ([2]; Homo sapiens, Fibroblast, compound 300 ug/ml, percent change from no compound, read-out: 3H-Thymidine uptake by BUD-8 skin cells, % effect): 90% | inhibition at 750 µg/mL ([2]; Homo sapiens, Fibroblast, compound 750 ug/ml, percent change from no compound, read-out: 3H-Thymidine uptake by BUD-8 skin cells, % effect): 85% | 3H-Thymidine uptake by BUD-8 skin cells ([2]; compound 1 ug/ml): 6,069 ± 636 cpm | 3H-Thymidine uptake by BUD-8 skin cells ([2]; compound 10 ug/ml): 3,363 ± 227 cpm | 3H-Thymidine uptake by BUD-8 skin cells ([2]; compound 25 ug/ml): 1,430 ± 1,176 cpm | 3H-Thymidine uptake by BUD-8 skin cells ([2]; compound 100 ug/ml): 649 ± 114 cpm | 3H-Thymidine uptake by BUD-8 skin cells ([2]; compound 300 ug/ml): 595 ± 110 cpm | 3H-Thymidine uptake by BUD-8 skin cells ([2]; compound 750 ug/ml): 911 ± 863 cpm | Blastogenic response of normal spleen cells to Con-A [3, 4]: 13,581 ± 4,804 cpm | Blastogenic response of normal spleen cells to Con-A [3, 5]: 5,014 ± 89 cpm | Blastogenic response of normal spleen cells to Con-A [3, 6]: 3,312 ± 1,541 cpm | Blastogenic response of normal spleen cells to Con-A [3, 7]: 2,967 ± 964 cpm | Blastogenic response of normal spleen cells to Con-A [3, 8]: 2,934 ± 299 cpm | Blastogenic response of normal spleen cells to Con-A [3, 9]: 2,020 ± 651 cpm | Blastogenic response of normal spleen cells to Con-A [3, 10]: 18,607 ± 8,159 cpm | Blastogenic response of normal spleen cells to Con-A [3, 11]: 4,293 ± 3,517 cpm | Blastogenic response of normal spleen cells to Con-A [3, 12]: 1,635 ± 635 cpm | Blastogenic response of normal spleen cells to Con-A [3, 13]: 2,618 ± 444 cpm | Blastogenic response of normal spleen cells to Con-A [3, 14]: 2,787 ± 413 cpm | Blastogenic response of normal spleen cells to Con-A [3, 15]: 1,575 ± 480 cpm | inhibition at 1 µg/mL [3, 4]: 81% | inhibition at 10 µg/mL [3, 5]: 93% | inhibition at 25 µg/mL [3, 6]: 95% | inhibition at 100 µg/mL [3, 7]: 96% | inhibition at 300 µg/mL [3, 8]: 96% | inhibition at 750 µg/mL [3, 9]: 97% | inhibition at 1 µg/mL [3, 10]: 81% | inhibition at 10 µg/mL [3, 11]: 96% | inhibition at 25 µg/mL [3, 12]: 98% | inhibition at 100 µg/mL [3, 13]: 97% | inhibition at 300 µg/mL [3, 14]: 97% | inhibition at 750 µg/mL [3, 15]: 98%
